Laboratory results published in US4605744A, “Imidazole derivatives” (Hoffmann-La Roche Inc., priority 1985, dated 1986).
Where a name gives a salt, the structure may show the parent alone.

Experiments:
Test in all cases: In vitro antibacterial activity (MIC)
Format in all cases: cell-based
E. coli 4 = conditions: Escherichia coli, 4, E. coli 4; read-out: MIC
In short: (§1)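 Read-out: visible growth, checked with a viewer after overnight incubation at 37° C. Bacteria, from a 10^-2 dilution of an overnight culture, were exposed to drug at 128 to 0.008 μg/ml in Mueller-Hinton broth.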

C. freundii 8ASM = conditions: Citrobacter freundii, 8ASM, C. freundii 8ASM; read-out: MIC
In short: as §1

E. cloacae 9295 = conditions: Enterobacter cloacae, 9295
In short: as §1

P. vulgaris 101 = conditions: Proteus vulgaris, 101, P. vulgaris 101; read-out: MIC
In short: as §1

E. coli 387-1 = conditions: Escherichia coli, 3871, E. coli 387-1; read-out: MIC
In short: as §1

S. marcescens S1 = conditions: Serratia marcescens, S1, S. marcescens S1; read-out: MIC
In short: as §1

S. pyogenes 503-782 = conditions: Streptococcus pyogenes, 503782; S. pyogenes 503-782; read-out: MIC
In short: as §1

S. marcescens S5 = conditions: Serratia marcescens, S5, S. marcescens S5; read-out: MIC
In short: as §1

E. coli 503-455 = conditions: Escherichia coli, 503455
In short: as §1

P. aeruginosa 8780 = conditions: Pseudomonas aeruginosa; P. aeruginosa 8780; read-out: MIC
In short: as §1

P. mirabilis 90 = conditions: Proteus mirabilis, 90, P. mirabilis 90; read-out: MIC
In short: as §1

E. coli 5152 = conditions: Escherichia coli, 5152, E. coli 5152; read-out: MIC
In short: as §1

S. marcescens S147 = conditions: Serratia marcescens; S. marcescens S147; read-out: MIC
In short: as §1

E. cloacae 214 = conditions: Enterobacter cloacae, 214, E. cloacae 214; read-out: MIC
In short: as §1

C. diversus CDC 1663-72 = conditions: Citrobacter koseri, CDC166372; C. diversus CDC 1663-72; read-out: MIC
In short: as §1

E. aerogenes 503-478 = conditions: Klebsiella aerogenes, 503478, E. aerogenes 503-478; read-out: MIC
In short: as §1

E. cloacae P99 = conditions: Enterobacter cloacae, P99, E. cloacae P99
In short: as §1

S. marcescens S4 = conditions: Serratia marcescens, S4, S. marcescens S4; read-out: MIC
In short: as §1

S. pneumoniae SC = conditions: Streptococcus pneumoniae, read-out: MIC
In short: as §1

K. pneumoniae 35 = conditions: Klebsiella pneumoniae; K. pneumoniae 35; read-out: MIC
In short: as §1

S. marcescens S2 = conditions: Serratia marcescens; S. marcescens S2; read-out: MIC
In short: as §1

S. pneumoniae 6302 = conditions: Streptococcus pneumoniae, 6302, S. pneumoniae 6302; read-out: MIC
In short: as §1

S. faecalis C1 = conditions: Enterococcus faecalis; S. faecalis C1; read-out: MIC
In short: as §1

P. mirabilis 620A = conditions: Proteus mirabilis, 620A, P. mirabilis 620A; read-out: MIC
In short: as §1

P. aeruginosa 503-820 = conditions: Pseudomonas aeruginosa, 503820; P. aeruginosa 503-820; read-out: MIC
In short: as §1

P. mirabilis 190 = conditions: Proteus mirabilis, 190, P. mirabilis 190; read-out: MIC
In short: as §1

S. pneumoniae 6301 = conditions: Streptococcus pneumoniae, 6301, S. pneumoniae 6301; read-out: MIC
In short: as §1

P. aeruginosa 8710 = conditions: Pseudomonas aeruginosa; P. aeruginosa 8710; read-out: MIC
In short: as §1

E. aerogenes 83 = conditions: Klebsiella aerogenes, 83
In short: as §1

S. pyogenes 4 = conditions: Streptococcus pyogenes, 4, S. pyogenes 4; read-out: MIC
In short: as §1

P. aeruginosa 5700 = conditions: Pseudomonas aeruginosa, 5700, P. aeruginosa 5700; read-out: MIC
In short: as §1

S. schottmuelleri = conditions: read-out: MIC
In short: as §1

K. pneumoniae 5096 = conditions: Klebsiella pneumoniae; K. pneumoniae 5096; read-out: MIC
In short: as §1

E. cloacae 5699 = conditions: Enterobacter cloacae, 5699, E. cloacae 5699; read-out: MIC
In short: as §1

E. coli 48 = conditions: Escherichia coli, 48, E. coli 48; read-out: MIC
In short: as §1

E. cloacae 9570A = conditions: Enterobacter cloacae, read-out: MIC
In short: as §1

S. marcescens S714 = conditions: Serratia marcescens, S714, S. marcescens S714; read-out: MIC
In short: as §1

P. vulgaris 100 = conditions: Proteus vulgaris; P. vulgaris 100; read-out: MIC
In short: as §1

K. pneumoniae 503-964 = conditions: Klebsiella pneumoniae, 503964; K. pneumoniae 503-964; read-out: MIC
In short: as §1

S. marcescens S3 = conditions: Serratia marcescens; S. marcescens S3; read-out: MIC
In short: as §1

K. pneumoniae 4964 = conditions: Klebsiella pneumoniae, 4964, K. pneumoniae 4964; read-out: MIC
In short: as §1

C. freundii CDC6 = conditions: Citrobacter freundii, CDC6, C. freundii CDC6; read-out: MIC
In short: as §1

E. coli R-563 = conditions: Escherichia coli, R563, E. coli R-563; read-out: MIC
In short: as §1

P. aeruginosa 6148B = conditions: Pseudomonas aeruginosa, read-out: MIC
In short: as §1

## CC1(C)S[C@@H]2[C@H](N=CN3CCC(Cn4ccnc4N)CC3)C(=O)N2[C@H]1C(=O)O [H, [2S-(2alpha,5alpha,6beta)]-6-[[[4-[(2-amino-1H-imidazol-1-yl)methyl-1-piperidinyl]methylene]amino]-3,3-dimethyl-7-oxo-4-thia-1-azabicyclo[3.2.0]heptane-2-carboxylic acid hydrochloride]
E. coli 4
  MIC: 0.062 µg/mL
C. freundii 8ASM
  MIC: 0.031 µg/mL
E. cloacae 9295
  MIC: 0.5 µg/mL
P. vulgaris 101
  MIC: 8 µg/mL
E. coli 387-1
  MIC: 0.125 µg/mL
S. marcescens S1
  MIC: 0.125 µg/mL
S. pyogenes 503-782
  MIC: 64 µg/mL
S. marcescens S5
  MIC: 0.5 µg/mL
E. coli 503-455
  MIC: 1 µg/mL
P. aeruginosa 8780
  MIC: > 128 µg/mL
P. mirabilis 90
  MIC: 0.125 µg/mL
E. coli 5152
  MIC: 8 µg/mL
S. marcescens S147
  MIC: 0.031 µg/mL
E. cloacae 214
  MIC: 0.125 µg/mL
C. diversus CDC 1663-72
  MIC: 0.062 µg/mL
E. aerogenes 503-478
  MIC: 8 µg/mL
E. cloacae P99
  MIC: 0.062 µg/mL
S. marcescens S4
  MIC: 0.5 µg/mL
S. pneumoniae SC
  MIC: 1 µg/mL
K. pneumoniae 35
  MIC: 0.25 µg/mL
S. marcescens S2
  MIC: 0.062 µg/mL
S. pneumoniae 6302
  MIC: 1 µg/mL
S. faecalis C1
  MIC: 64 µg/mL
P. mirabilis 620A
  MIC: 16 µg/mL
P. aeruginosa 503-820
  MIC: 64 µg/mL
P. mirabilis 190
  MIC: 0.125 µg/mL
S. pneumoniae 6301
  MIC: 1 µg/mL
P. aeruginosa 8710
  MIC: 128 µg/mL
E. aerogenes 83
  MIC: 16 µg/mL
S. pyogenes 4
  MIC: 1 µg/mL
P. aeruginosa 5700
  MIC: 0.125 µg/mL
S. schottmuelleri
  MIC: 0.062 µg/mL
K. pneumoniae 5096
  MIC: 64 µg/mL
E. cloacae 5699
  MIC: 0.25 µg/mL
E. coli 48
  MIC: 0.062 µg/mL
E. cloacae 9570A
  MIC: 0.25 µg/mL
S. marcescens S714
  MIC: 0.25 µg/mL
P. vulgaris 100
  MIC: 4 µg/mL
K. pneumoniae 503-964
  MIC: 0.125 µg/mL
S. marcescens S3
  MIC: 0.125 µg/mL
K. pneumoniae 4964
  MIC: 64 µg/mL
C. freundii CDC6
  MIC: 0.062 µg/mL
E. coli R-563
  MIC: 0.062 µg/mL
P. aeruginosa 6148B
  MIC: 64 µg/mL
